Data published in patent US20250213532A1, “5-METHOXY-N,N-[…][…] THE TREATMENT OF BIPOLAR DISORDER” (GH RESEARCH IRELAND LIMITED, priority 2022, published 2025).

Columns and labels:
[1] = Acute psychedelic effects after inhalation; design: species or system human; conditions: in vivo
[2] = test system: patients with treatment-resistant major depressive disorder (TRD); assay: Phase 1/2 clinical trial of inhaled 5-MeO-DMT in TRD: MADRS; type: in vivo, human
Procedure: When assessing a clinical response at an early timepoint after drug administration (e.g. at 2 hours) based on endpoints which have been developed for a longer recall period (e.g. normally 7 days for the MADRS), a rational modification of such endpoint (e.g. changing the MADRS recall period to 2 hours and carrying forward the sleep item recorded at baseline before drug administration) may be applied. The same applies with respect to the BDRS (in particular the item sleep disturbance) and any other scale applied herein, unless a recall period is specifically indicated.
The Montgomery-Asberg Depression Rating Scale (MADRS) is a ten-item diagnostic questionnaire used to measure the severity of depressive episodes in patients with mood disorders (Montgomery, S. A., & Asberg, M. (1979). A new depression scale designed to be sensitive to change. The British Journal of Psychiatry 134, p.382). It was designed as an adjunct to the Hamilton Rating Scale for Depression (HAM-D), which would be more sensitive to the changes brought on by antidepressants and other forms of treatment. Higher MADRS score indicates more severe depression. The items considered are apparent sadness; reported sadness; inner tension; reduced sleep; reduced appetite; concentration difficulties; lassitude; inability to feel; pessimistic thoughts; and suicidal thoughts, and each item yields a score of 0 to 6. The overall score ranges from 0 to 60. Score ranges used herein for assessing the severity of depressive episodes in patients with bipolar disorder are 13-18 for “mildly ill”, 19-23 for “moderately ill”, 24-36 for “markedly ill”, 37-39 for “severely ill”, and 40 for “extremely ill” (Thase, 2021).
Patients were assigned to different groups.
This trial was designed in two parts.

[3] = test system: patients with clinically diagnosed postpartum depression (PPD); assay: Clinical trial in postpartum depression: safety and tolerability; type: in vivo, human; conditions: one PPD patient
Description: The patient completed all planned visit days.

[4] = Pharmacokinetics after single inhaled dose (LC-MS/MS); type: in vivo, human
Procedure: Blood samples were obtained at 1; 2; 4; 7; 10; 15; 20; 30; 45 min and 1; 1.5; 2; 3; 4 hours after administration.
PK parameters were generated by algebraic analysis of the concentration versus time plots for each individual. The analysis was carried out using the software Phoenix WinNonlin 6.3.

[5] = 12 mg n=4, 2 hours, baseline 13
[6] = 12 mg n=4, 2 hours, baseline 16

## COc1ccc2[nH]cc(CCN(C)C)c2c1 [5-MeO-DMT]
[1]
  Onset of effect: merely seconds
[2]; 12 mg n=4, 2 hours, baseline 8
  MADRS Suicidal Thoughts percentage improvement: 63%
  MADRS Suicidal Thoughts score (sum): 3
[2]; [5]
  MADRS Inner Tension percentage improvement: 85%
  MADRS Inner Tension score (sum): 2
[2]; [6]
  MADRS Concentration Difficulties percentage improvement: 56%
  MADRS Concentration Difficulties score (sum): 7
  MADRS Inability to Feel percentage improvement: 44%
  MADRS Inability to Feel score (sum): 9
  MADRS Lassitude percentage improvement: 38%
  MADRS Lassitude score (sum): 10
  MADRS Pessimistic Thoughts percentage improvement: 50%
  MADRS Pessimistic Thoughts score (sum): 8
[2]; 12 mg n=4, Day 1, baseline 8
  MADRS Suicidal Thoughts score (sum): 5
[2]; 12 mg n=4, Day 1, baseline 12
  MADRS Reduced Sleep score (sum): 10
[2]; 12 mg n=4, Day 1, baseline 13
  MADRS Inner Tension percentage improvement: 77%
  MADRS Inner Tension score (sum): 3
[2]; 12 mg n=4, Day 1, baseline 16
  MADRS Concentration Difficulties percentage improvement: 88%
  MADRS Concentration Difficulties score (sum): 2
  MADRS Inability to Feel score (sum): 1
  MADRS Lassitude percentage improvement: 100%
  MADRS Lassitude score (sum): 0
  MADRS Pessimistic Thoughts percentage improvement: 56%
  MADRS Pessimistic Thoughts score (sum): 7
[2]; 12 mg n=4, Day 7, baseline 8
  MADRS Suicidal Thoughts score (sum): 7
[2]; 12 mg n=4, Day 7, baseline 12
  MADRS Reduced Sleep score (sum): 6
[2]; 12 mg n=4, Day 7, baseline 13
  MADRS Inner Tension percentage improvement: 62%
  MADRS Inner Tension score (sum): 5
[2]; 12 mg n=4, Day 7, baseline 16
  MADRS Concentration Difficulties percentage improvement: 81%
  MADRS Concentration Difficulties score (sum): 3
  MADRS Inability to Feel score (sum): 1
  MADRS Lassitude percentage improvement: 81%
  MADRS Lassitude score (sum): 3
  MADRS Pessimistic Thoughts percentage improvement: 50%
  MADRS Pessimistic Thoughts score (sum): 8
[2]; IDR n=8, 2 hours, baseline 11
  MADRS Suicidal Thoughts percentage improvement: 73%
  MADRS Suicidal Thoughts score (sum): 3
[2]; IDR n=8, 2 hours, baseline 26
  MADRS Inner Tension percentage improvement: 58%
  MADRS Inner Tension score (sum): 11
[2]; IDR n=8, 2 hours, baseline 27
  MADRS Lassitude percentage improvement: 63%
  MADRS Lassitude score (sum): 10
[2]; IDR n=8, 2 hours, baseline 28
  MADRS Pessimistic Thoughts percentage improvement: 75%
  MADRS Pessimistic Thoughts score (sum): 7
[2]; IDR n=8, 2 hours, baseline 30
  MADRS Concentration Difficulties percentage improvement: 63%
  MADRS Concentration Difficulties score (sum): 11
[2]; IDR n=8, 2 hours, baseline 36
  MADRS Inability to Feel percentage improvement: 67%
  MADRS Inability to Feel score (sum): 12
[2]; IDR n=8, Day 1, baseline 11
  MADRS Suicidal Thoughts score (sum): 1
[2]; IDR n=8, Day 1, baseline 25
  MADRS Reduced Sleep score (sum): 12
[2]; IDR n=8, Day 1, baseline 26
  MADRS Inner Tension percentage improvement: 77%
  MADRS Inner Tension score (sum): 6
[2]; IDR n=8, Day 1, baseline 27
  MADRS Lassitude percentage improvement: 81%
  MADRS Lassitude score (sum): 5
[2]; IDR n=8, Day 1, baseline 28
  MADRS Pessimistic Thoughts percentage improvement: 86%
  MADRS Pessimistic Thoughts score (sum): 4
[2]; IDR n=8, Day 1, baseline 30
  MADRS Concentration Difficulties percentage improvement: 97%
  MADRS Concentration Difficulties score (sum): 1
[2]; IDR n=8, Day 1, baseline 36
  MADRS Inability to Feel score (sum): 2
[2]; IDR n=8, Day 7, baseline 11
  MADRS Suicidal Thoughts score (sum): 3
[2]; IDR n=8, Day 7, baseline 25
  MADRS Reduced Sleep score (sum): 9
[2]; IDR n=8, Day 7, baseline 26
  MADRS Inner Tension percentage improvement: 54%
  MADRS Inner Tension score (sum): 12
[2]; IDR n=8, Day 7, baseline 27
  MADRS Lassitude percentage improvement: 89%
  MADRS Lassitude score (sum): 3
[2]; IDR n=8, Day 7, baseline 28
  MADRS Pessimistic Thoughts percentage improvement: 89%
  MADRS Pessimistic Thoughts score (sum): 3
[2]; IDR n=8, Day 7, baseline 30
  MADRS Concentration Difficulties percentage improvement: 70%
  MADRS Concentration Difficulties score (sum): 9
[2]; IDR n=8, Day 7, baseline 36
  MADRS Inability to Feel score (sum): 6
[3]
  Tolerability of inhalation procedure: well tolerated with no inhalation-related adverse events
[3]; Day 0
  Adverse events (cramping left abdominal pain and headache): mild, short-lasting and resolved spontaneously
[3]; ECG 3 hours, laboratory 7 days, CADSS 3 hours, 1 day, 7 days
  ECG, safety laboratory analyses, CADSS: unremarkable
[4]; dosing schemes relying on uptitration
  Pharmacokinetics under uptitration dosing schemes vs single dose: Substantially similar results
[4]; repeated administration within a time frame of 1 to 4 hours
  Accumulation upon repeated administration: No accumulation
